# Results: ChEMBL document CHEMBL1130293, “Studies on the active conformation of the NK1 antagonist CGP 49823. Part 21. Fluoro-olefin analogs of tertiary amide rotamers” (Bioorg Med Chem Lett, 1997)
# Target: Substance-P receptor (Homo sapiens, UniProt P25103)
# Test: Tested for the binding affinity against neurokinin NK1 receptor
# Sequence of Substance-P receptor (P25103 whole entry): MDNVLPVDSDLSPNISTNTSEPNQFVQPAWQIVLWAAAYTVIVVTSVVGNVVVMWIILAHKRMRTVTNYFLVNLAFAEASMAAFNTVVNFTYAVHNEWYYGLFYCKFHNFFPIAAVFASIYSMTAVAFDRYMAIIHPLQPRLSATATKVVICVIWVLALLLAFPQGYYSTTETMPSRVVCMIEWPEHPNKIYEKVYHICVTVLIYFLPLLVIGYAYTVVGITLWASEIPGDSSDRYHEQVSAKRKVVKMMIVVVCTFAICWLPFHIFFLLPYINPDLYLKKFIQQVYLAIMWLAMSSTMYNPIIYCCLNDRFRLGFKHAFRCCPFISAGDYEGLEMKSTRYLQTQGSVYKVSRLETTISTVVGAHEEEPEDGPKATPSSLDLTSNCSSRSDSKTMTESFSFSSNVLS
row,IC50 [nM],SMILES
1,15,Cc1cc(C)cc(C(=O)N2CC[C@H](NC(=O)c3ccnc4ccccc34)C[C@H]2Cc2ccccc2)c1
2,380,Cc1cc(C)cc(/C(F)=C2/CC[C@H](NC(=O)c3ccnc4ccccc34)C[C@H]2Cc2ccccc2)c1
3,270,Cc1cc(C)cc(/C(F)=C2\CC[C@@H](NC(=O)c3ccnc4ccccc34)C[C@@H]2Cc2ccccc2)c1
4,> 10000,Cc1cc(C)cc(/C(F)=C2/CC[C@@H](NC(=O)c3ccnc4ccccc34)C[C@@H]2Cc2ccccc2)c1
5,> 10000,Cc1cc(C)cc(/C(F)=C2\CC[C@H](NC(=O)c3ccnc4ccccc34)C[C@H]2Cc2ccccc2)c1
6,620,Cc1cc(C)cc(/C(F)=C2\CCC(NC(=O)c3ccnc4ccccc34)CC2Cc2ccccc2)c1 (racemic)
7,710,Cc1cc(C)cc(/C(F)=C2/CCC(NC(=O)c3ccnc4ccccc34)CC2Cc2ccccc2)c1 (racemic)
